Experimental data: patent US20180071354A1, “SELECTIVE BREEDING METHOD OF ANTITUMOR/ANTICANCER CAMELLIA SINENSIS STRAIN, AND TEA PRODUCT OF SUCH STRAIN” (FUJIAN AGRICULTURE AND FORESTRY UNIVERSITY, priority 2015, published 2018)
≈ marks a conversion by molar mass, not a printed value.

Experiments:
[1] = tested on: HepG2 transplanted tumor (inoculated tumor tissue pieces); assay: In vivo antitumor testing, second and third experiments (Animal Model 2); set-up: species or system BALB/c nude mice; conditions: second experiment
Experimental: The establishment of Animal Model 2 is described below. Male BALB/c nude mice (5 to 6 weeks of age, a body weight of 15 to 16 g, certificate number: SCXK (Hu) 2012-0002) were purchased from Shanghai Silaike Experiment Animal Co., Ltd and were acclimatized for one week. A cell suspension of HepG2 cells having a concentration of 1×10^7 cells/mL was prepared using the same method as that for preparing the cell suspension for Animal Model 1. 0.2 mL of the cell suspension was subcutaneously injected into the back of each of 5 nude mice. […] Tea Product 1 and Conventional Tea Product obtained in section A of Example 3, as well as 5-fluorouracil mentioned in section B of Example 3, were examined for their in vivo antitumor activity. […] In the third experiment, nude mice of Animal Model 2 were divided into three groups, i.e. a control group (n=11), a Tea Product 1 group (n=11), and a Conventional Tea Product group (n=8). […] In all the three experiments above, each of the nude mice was sacrificed 24 hours after the termination of the treatment. The tumor was collected and weighed. The antitumor effect of a respective test substance was evaluated by virtue of the percent tumor growth inhibition (%), which was calculated using the following Equation II: E=[(F−G)/(F)]×100% (I) • E=percent tumor growth inhibition (%) • F=tumor weight of control group • G=tumor weight of respective test substance group The experimental data are expressed as mean±SEM (standard error of the mean). The experimental data were subjected to one-way analysis of variance (ANOVA) using SPSS (Statistical Package for Social Sciences) software package version 11.5, such that the difference between the groups could be evaluated. The data regarding the tumor weights of the groups were subjected to t-test. Statistical significance is indicated by p<0.05.

[2] = tested on: human colon cancer cell line HCT-116; assay: In vitro antitumor/anticancer testing (CCK-8), HCT-116; assay type: cell-based; conditions: Homo sapiens, HCT-116, 48 h
Experimental: (§1) Each of Tea Product 1 and Conventional Tea Product obtained in section A of this example was used to prepare test tea samples according to the method described below. A proper amount of the respective tea product was added into sterile water to prepare a stock solution with a concentration of 100 mg/mL, followed by using a membrane filter with a pore size of 0.22 μm to conduct vacuum filtration and sterilization. The resulting stock solution was diluted with a respective complete medium shown in Table 3 below to form test tea samples with different concentrations. In other words, the thus obtained test tea samples to be used for treating a respective cancer/tumor cell line shown in Table 3 were prepared using the same complete medium as that for the respective cancer/tumor cell line. […] Specifically, each of the aforesaid commercially available agents was subjected to the method described below to prepare comparative test samples. A proper amount of a respective commercially available agent was dissolved in phosphate-buffered saline (PBS) to prepare a stock solution with a concentration of 5 mg/mL, followed by using a membrane filter with a pore size of 0.22 μm to conduct vacuum filtration and sterilization. The resulting stock solution was diluted with a respective complete medium shown in Table 3 below to form comparative test samples with different concentrations. To be specific, the comparative test samples prepared from the respective commercially available agent have the concentrations shown in Table 2 below. The thus obtained comparative test samples to be used for treating a respective cancer/tumor cell line shown in Table 3 were prepared using the same complete medium as that for the respective cancer/tumor cell line. […] The cultivation of each cancer/tumor cell line is described as follows. […] Afterwards, a cell suspension having a cell density of 1.0×10^4 cells/mL was prepared. […] As experimental groups, the tumor/cancer cells of each cell line were treated with the test tea samples prepared from one or more of the tea products and the comparative test samples prepared from one or more of the commercially available agents as obtained in section B of this example (for more detailed information about the tea product(s) and the commercially available product (s) used to treat each cell line, please see Table 4 below). To be specific, 6 to 10 test tea samples prepared from the same tea product and having different concentrations, as well as 6 to 10 comparative test samples prepared from the same commercially available agent and having different concentrations, were utilized to treat the tumor/cancer cells of each cell line. For each experimental group, 6 repetitions of tumor/cancer treatment were performed. For the control group, 100 μL of PBS was added to a well containing the medium and the cancer/tumor cells of the respective cell line. For the blank group, 100 μL of PBS was added to a well containing a complete medium the same as that used for cultivation of the cancer/tumor cells of the respective cell line. After the treatment described above, cultivation was conducted in an incubator (37° C., 100% relative humidity, 5% CO2) for 48 hours. Subsequently, the liquid containing the medium and the sample in the well was removed, and a respective complete medium (shown in Table 3 above) containing 10% CCK-8 (Cell Counting Kit-8)(Dojindo Molecular Technologies, Inc., Cat. No. CK04-13) was added. Cultivation was performed in an incubator (37° C.) for 2 to 4 hours, followed by gently shaking.

[3] = tested on: human gastric cancer cell line BGC-823; assay: In vitro antitumor/anticancer testing (CCK-8), BGC-823; assay type: cell-based; conditions: Homo sapiens, BGC-823, 48 h
Experimental: as §1

[4] = tested on: human squamous cell carcinoma cell line A431; assay: In vitro antitumor/anticancer testing (CCK-8), A431; assay type: cell-based; conditions: Homo sapiens, A-431, 48 h
Experimental: as §1

[5] = tested on: human gastric cancer cell line SMMC-7721; assay: In vitro antitumor/anticancer testing (CCK-8), SMMC-7721; assay type: cell-based; conditions: Homo sapiens, SMMC-7721, 48 h
Experimental: as §1

[6] = 35 days, 5-fluorouracil 15.0 mg/kg per day intra-abdominal injection, Tea Product 1 0.6 mL of 10% per day intragastric gavage
[7] = 0.3125 μg/mL, read-out: Percent growth inhibition
[8] = 0.625 μg/mL, read-out: Percent growth inhibition
[9] = 1.25 μg/mL, read-out: Percent growth inhibition
[10] = 2.5 μg/mL, read-out: Percent growth inhibition
[11] = 5 μg/mL, read-out: Percent growth inhibition
[12] = 10 μg/mL, read-out: Percent growth inhibition
[13] = 20 μg/mL, read-out: Percent growth inhibition
[14] = 40 μg/mL, read-out: Percent growth inhibition
[15] = 80 μg/mL, read-out: Percent growth inhibition

## O=c1[nH]cc(F)c(=O)[nH]1 [5-fluorouracil]
[1]; Animal Model 2, baseline
  Body weight Before treatment: 17.22 g
[1]; [6]
  Body weight After treatment: 24.32 g
  Percent tumor growth inhibition: 48.96%
  Tumor weight: 0.034 g
[2]; [7]
  inhibition at 0.3125 µg/mL: 70.1%
[2]; [8]
  inhibition at 0.625 µg/mL: 32.4%
[2]; [9]
  inhibition at 1.25 µg/mL: 36.4%
[2]; [10]
  inhibition at 2.5 µg/mL: 88.5%
[2]; [11]
  inhibition at 5 µg/mL: 89.9%
[2]; [12]
  inhibition at 10 µg/mL: 91.9%
[2]; [13]
  inhibition at 20 µg/mL: 95.8%
[2]; [14]
  inhibition at 40 µg/mL: 97.9%
[2]; [15]
  inhibition at 80 µg/mL: 99.5%
[2]; read-out: IC50
  IC50: 0.0493 µg/mL (≈ 0.379 µM)
[3]; [7]
  inhibition at 0.3125 µg/mL: -5.82%
[3]; [8]
  inhibition at 0.625 µg/mL: -4.99%
[3]; [9]
  inhibition at 1.25 µg/mL: -1.41%
[3]; [10]
  inhibition at 2.5 µg/mL: 0.92%
[3]; [11]
  inhibition at 5 µg/mL: 11.6%
[3]; [12]
  inhibition at 10 µg/mL: 23.9%
[3]; [13]
  inhibition at 20 µg/mL: 40.9%
[3]; [14]
  inhibition at 40 µg/mL: 52.7%
[3]; [15]
  inhibition at 80 µg/mL: 62.8%
[3]; read-out: IC50
  IC50: 2.55 µg/mL (≈ 19.6 µM)
[4]; [7]
  inhibition at 0.3125 µg/mL: 82.4%
[4]; [8]
  inhibition at 0.625 µg/mL: 83.5%
[4]; [9]
  inhibition at 1.25 µg/mL: 83.1%
[4]; [10]
  inhibition at 2.5 µg/mL: 83%
[4]; [11]
  inhibition at 5 µg/mL: 84.4%
[4]; [12]
  inhibition at 10 µg/mL: 33.7%
[4]; [13]
  inhibition at 20 µg/mL: 96.3%
[4]; [14]
  inhibition at 40 µg/mL: 98.2%
[4]; [15]
  inhibition at 80 µg/mL: 98.8%
[4]; A431, read-out: IC50
  IC50: 0.272 µg/mL (≈ 2.09 µM)
[5]; [7]
  inhibition at 0.3125 µg/mL: 28.6%
[5]; [8]
  inhibition at 0.625 µg/mL: 62.4%
[5]; [9]
  inhibition at 1.25 µg/mL: 81%
[5]; [10]
  inhibition at 2.5 µg/mL: 82.7%
[5]; [11]
  inhibition at 5 µg/mL: 84.3%
[5]; [12]
  inhibition at 10 µg/mL: 81.6%
[5]; [13]
  inhibition at 20 µg/mL: 79.1%
[5]; [14]
  inhibition at 40 µg/mL: 80.2%
[5]; [15]
  inhibition at 80 µg/mL: 91%
[5]
  IC50: 0.383 µg/mL (≈ 2.94 µM)
